In PMC11591901 (Biomolecules, 2024):
Where two headings read alike, the source gives them in different places.

Experiments:
[1] = molecular target: T1, butyrylcholinesterase from equine serum (eqBChE, E.C. 3.1.1.8) (Equus caballus, UniProt P81908); assay: biochemical
T1 construct: butyrylcholinesterase from equine serum (eqBChE, E.C. 3.1.1.8); purchased Sigma Aldrich; host or cells: equine serum

[2] = molecular target: Acetylcholinesterase from electric eel (eeAChE, type VI-S) (Electrophorus electricus, UniProt O42275); assay: biochemical
Chain of Acetylcholinesterase from electric eel (eeAChE, type VI-S) (O42275 24-633): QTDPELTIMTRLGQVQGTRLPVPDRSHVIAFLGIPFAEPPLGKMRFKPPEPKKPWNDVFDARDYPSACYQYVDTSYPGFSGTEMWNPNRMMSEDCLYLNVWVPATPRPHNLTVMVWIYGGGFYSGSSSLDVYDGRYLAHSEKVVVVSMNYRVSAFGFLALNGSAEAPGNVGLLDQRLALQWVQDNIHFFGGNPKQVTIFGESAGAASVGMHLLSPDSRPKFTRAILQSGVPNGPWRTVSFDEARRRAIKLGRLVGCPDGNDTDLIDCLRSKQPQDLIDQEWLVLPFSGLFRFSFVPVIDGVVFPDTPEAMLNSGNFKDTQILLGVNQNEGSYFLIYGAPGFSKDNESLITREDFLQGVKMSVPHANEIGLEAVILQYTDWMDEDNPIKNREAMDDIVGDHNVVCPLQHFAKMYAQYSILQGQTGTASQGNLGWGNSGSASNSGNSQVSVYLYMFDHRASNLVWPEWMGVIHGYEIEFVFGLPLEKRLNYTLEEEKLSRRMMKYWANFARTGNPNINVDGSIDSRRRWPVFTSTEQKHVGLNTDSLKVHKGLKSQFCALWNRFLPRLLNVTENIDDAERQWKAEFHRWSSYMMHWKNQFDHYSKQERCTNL

[3] = eqBChE, Ellman assay, triplicate
[4] = eeAChE, Ellman assay, triplicate

T1 sequence (P81908 whole entry): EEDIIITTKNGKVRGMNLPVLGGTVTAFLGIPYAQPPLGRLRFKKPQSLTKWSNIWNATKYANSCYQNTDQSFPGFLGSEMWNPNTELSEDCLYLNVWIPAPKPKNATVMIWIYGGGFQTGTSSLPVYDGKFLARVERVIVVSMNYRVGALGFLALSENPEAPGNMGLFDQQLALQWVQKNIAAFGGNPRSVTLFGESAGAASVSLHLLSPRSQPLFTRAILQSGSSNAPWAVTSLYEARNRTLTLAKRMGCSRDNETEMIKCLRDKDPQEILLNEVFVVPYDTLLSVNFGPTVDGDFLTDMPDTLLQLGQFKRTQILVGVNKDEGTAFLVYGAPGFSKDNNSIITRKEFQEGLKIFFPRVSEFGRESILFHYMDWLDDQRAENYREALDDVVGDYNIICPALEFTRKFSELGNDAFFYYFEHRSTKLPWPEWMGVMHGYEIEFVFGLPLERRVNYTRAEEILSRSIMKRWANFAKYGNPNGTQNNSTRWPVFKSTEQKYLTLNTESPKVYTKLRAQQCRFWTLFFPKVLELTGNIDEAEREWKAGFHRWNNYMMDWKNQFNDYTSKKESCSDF

Structure (SMILES) | IC50 [1, 3] [µM] | IC50 [2, 4] [µM] | IC50 [1] [µM] | IC50 [2] [µM]
Cc1ccc(Cn2nnc3ccc4sccc4c32)cc1 [Compound 14, 1-(4-methylbenzyl)-1H-thieno [3’,2’:3,4]benzo [1,2-d][1,2,3]triazole] | 24.3 | 117 |  | 
Clc1ccc(Cn2nnc3ccc4sccc4c32)cc1 [Compound 15, 1-(4-chlorobenzyl)-1H-thieno [3’,2’:3,4]benzo [1,2-d][1,2,3]triazole] | 34.6 | 77 |  | 
Cc1cccc(Cn2nnc3ccc4sccc4c32)c1 [Compound 16, 1-(3-methylbenzyl)-1H-thieno [3’,2’:3,4]benzo [1,2-d][1,2,3]triazole] | 2.9 | 77.1 |  | 
Cc1ccc(Cn2nnc3ccc4sc(C)cc4c32)cc1 [Compound 17, 7-methyl-1-(4-methylbenzyl)-1H-thieno [3’,2’:3,4]benzo [1,2-d][1,2,3]triazole] | 57.6 | > 250 |  | 
Cc1cc2c(ccc3nnn(Cc4ccc(Cl)cc4)c32)s1 [Compound 18, 1-(4-chlorobenzyl)-7-methyl-1H-thieno [3’,2’:3,4]benzo [1,2-d][1,2,3]triazole] | 59 | > 100 |  | 
Cc1cccc(Cn2nnc3ccc4sc(C)cc4c32)c1 [Compound 19, 7-methyl-1-(3-methylbenzyl)-1H-thieno [3’,2’:3,4]benzo [1,2-d][1,2,3]triazole] | 70.3 | > 250 |  | 
COc1cccc(Cn2nnc3ccc4sc(C)cc4c32)c1 [Compound 20, 1-(3-methoxybenzyl)-7-methyl-1H-thieno [3’,2’:3,4]benzo [1,2-d][1,2,3]triazole] | 90.2 | 186 |  | 
Cc1cc2c(ccc3nnn(Cc4cccc(F)c4)c32)s1 [Compound 21, 1-(3-fluorobenzyl)-7-methyl-1H-thieno [3’,2’:3,4]benzo [1,2-d][1,2,3]triazole] | 172 | 465 |  | 
Cc1ccc(Cn2n[n+](C)c3ccc4sccc4c32)cc1 [Compound 22, 3-methyl-1-(4-methylbenzyl)-1H-thieno [3’,2’:3,4]benzo [1,2-d][1,2,3]triazol-3-ium] |  |  | 1 | 39.2
C[n+]1nn(Cc2ccc(Cl)cc2)c2c3ccsc3ccc21 [Compound 23, 1-(4-chlorobenzyl)-3-methyl-1H-thieno [3’,2’:3,4]benzo [1,2-d][1,2,3]triazol-3-ium] |  |  | 0.47 | 4.4
Cc1cccc(Cn2n[n+](C)c3ccc4sccc4c32)c1 [Compound 24, 3-methyl-1-(3-methylbenzyl)-1H-thieno [3’,2’:3,4]benzo [1,2-d][1,2,3]triazol-3-ium] | 7 | 55.1 |  | 
Cc1ccc(Cn2n[n+](C)c3ccc4sc(C)cc4c32)cc1 [Compound 25, 3,7-dimethyl-1-(4-methylbenzyl)-1H-thieno [3’,2’:3,4]benzo [1,2-d][1,2,3]triazol-3-ium] |  |  | 102 | 211
Cc1cc2c(ccc3c2n(Cc2ccc(Cl)cc2)n[n+]3C)s1 [Compound 26, 1-(4-chlorobenzyl)-3,7-dimethyl-1H-thieno [3’,2’:3,4]benzo [1,2-d][1,2,3]triazol-3-ium] | 13.4 | 8.1 |  | 
Cc1cccc(Cn2n[n+](C)c3ccc4sc(C)cc4c32)c1 [Compound 27, 3,7-dimethyl-1-(3-methylbenzyl)-1H-thieno [3’,2’:3,4]benzo [1,2-d][1,2,3]triazol-3-ium] | 9.7 | 8.3 |  | 
COc1cccc(Cn2n[n+](C)c3ccc4sc(C)cc4c32)c1 [Compound 28, 1-(3-methoxybenzyl)-3,7-dimethyl-1H-thieno [3’,2’:3,4]benzo [1,2-d][1,2,3]triazol-3-ium] | 10.6 | 54.8 |  | 
C[n+]1nn(Cc2cccc(Cl)c2)c2c3ccsc3ccc21 [Compound 30, 1-(3-chlorobenzyl)-3-methyl-1H-thieno [3’,2’:3,4]benzo [1,2-d][1,2,3]triazol-3-ium] |  |  | 2.7 | 12.2
C[n+]1nn(Cc2ccco2)c2c3ccsc3ccc21 [Compound 31, 1-(furan-2-ylmethyl)-3-methyl-1H-thieno [3’,2’:3,4]benzo [1,2-d][1,2,3]triazol-3-ium] | 16.1 | 157 |  | 
